The target in this experiment is T1, mouse TRPM3α2 (mTRPM3) ion channel (Mus musculus, UniProt J9SQF3).
T1 construct: expressed in transfected cells; host or cells: flip-in HEK293 (Flp-In HEK293) overexpressing mTRPM3alpha2
Briefly: TRPM3 ion channel driven Ca2+ uptake, Fluo-4 AM assay, stimulated with pregnenolone sulfate (50 μM). Type of experiment: cell-based. As to conditions: TRPM3 overexpressing flip-in HEK293 cells, PS 50 μM, 2.4 mM Ca2+. As to the method: In order to monitor the inhibition of the mouse TRPM3α2 (mTRPM3) ion channel by the compounds of the invention, a cellular system making use of an mTRPM3alpha2 or hTRPM3 overexpressing cell line (flip-in HEK293) was used. The TRPM3 channel was stimulated/opened with Pregnenolone sulfate (PS) (50 μM) which results in Ca^2+ influx.
For mTRPM3, the intracellular Ca^2+ was measured with a Calcium responsive dye, Fluor-4 AM ester (Invitrogen). Cells were cultured until a confluence of 80-90%, washed with Versene (Invitrogen) and detached from the surface by a short incubation with 0.05% Trypsin (Invitrogen). The […] was stopped by the addition of complete cell culture medium (DMEM, glutamax, 10% FCS, NEAA, Pen-Strep). Cells were collected and resuspended in Krebs buffer without Calcium at RT.
Prior the cell seeding (±2000 cells/well into a black, 384 well plate (Greiner)) the diluted compound was added in the assay plate, together with the PS dissolved in Krebs buffer containing Calcium. […] Directly after cell addition the plates were read on an Envision fluorescence reader (Perkin Elmer) by an Excitation of 485 nm and emission at 535 nm.
Channel inhibition was calculated compared to a non-PS stimulated control versus a condition stimulated with PS (50 μM) with vehicle. The ability of the compounds of the invention to inhibit this activity was determined as: Percentage inhibition=[1−((RFU determined for sample with test compound present−RFU determined for sample with positive control inhibitor) divided by (RFU determined in the presence of vehicle−RFU determined for sample with positive control inhibitor))]*100.
The activities of the Example compounds cpd 001-091 tested are depicted in the table below. All tested compounds show an activity in the Fluo-4 AM assay. The activity ranges A, B and C refer to IC50 values in the Fluo-4 AM assay as follows: “A”: IC50<1 μM; “B”: 1 μM≤IC50≤20 μM and “C”: IC50>20 μM.

Usually IC50 stands for the midpoint of a concentration-inhibition curve. Higher therefore signals lower potency.

A value given as a limit tells only on which side of the number the result lay.

T1 sequence (J9SQF3 1-1709 isoform J9SQF3-12): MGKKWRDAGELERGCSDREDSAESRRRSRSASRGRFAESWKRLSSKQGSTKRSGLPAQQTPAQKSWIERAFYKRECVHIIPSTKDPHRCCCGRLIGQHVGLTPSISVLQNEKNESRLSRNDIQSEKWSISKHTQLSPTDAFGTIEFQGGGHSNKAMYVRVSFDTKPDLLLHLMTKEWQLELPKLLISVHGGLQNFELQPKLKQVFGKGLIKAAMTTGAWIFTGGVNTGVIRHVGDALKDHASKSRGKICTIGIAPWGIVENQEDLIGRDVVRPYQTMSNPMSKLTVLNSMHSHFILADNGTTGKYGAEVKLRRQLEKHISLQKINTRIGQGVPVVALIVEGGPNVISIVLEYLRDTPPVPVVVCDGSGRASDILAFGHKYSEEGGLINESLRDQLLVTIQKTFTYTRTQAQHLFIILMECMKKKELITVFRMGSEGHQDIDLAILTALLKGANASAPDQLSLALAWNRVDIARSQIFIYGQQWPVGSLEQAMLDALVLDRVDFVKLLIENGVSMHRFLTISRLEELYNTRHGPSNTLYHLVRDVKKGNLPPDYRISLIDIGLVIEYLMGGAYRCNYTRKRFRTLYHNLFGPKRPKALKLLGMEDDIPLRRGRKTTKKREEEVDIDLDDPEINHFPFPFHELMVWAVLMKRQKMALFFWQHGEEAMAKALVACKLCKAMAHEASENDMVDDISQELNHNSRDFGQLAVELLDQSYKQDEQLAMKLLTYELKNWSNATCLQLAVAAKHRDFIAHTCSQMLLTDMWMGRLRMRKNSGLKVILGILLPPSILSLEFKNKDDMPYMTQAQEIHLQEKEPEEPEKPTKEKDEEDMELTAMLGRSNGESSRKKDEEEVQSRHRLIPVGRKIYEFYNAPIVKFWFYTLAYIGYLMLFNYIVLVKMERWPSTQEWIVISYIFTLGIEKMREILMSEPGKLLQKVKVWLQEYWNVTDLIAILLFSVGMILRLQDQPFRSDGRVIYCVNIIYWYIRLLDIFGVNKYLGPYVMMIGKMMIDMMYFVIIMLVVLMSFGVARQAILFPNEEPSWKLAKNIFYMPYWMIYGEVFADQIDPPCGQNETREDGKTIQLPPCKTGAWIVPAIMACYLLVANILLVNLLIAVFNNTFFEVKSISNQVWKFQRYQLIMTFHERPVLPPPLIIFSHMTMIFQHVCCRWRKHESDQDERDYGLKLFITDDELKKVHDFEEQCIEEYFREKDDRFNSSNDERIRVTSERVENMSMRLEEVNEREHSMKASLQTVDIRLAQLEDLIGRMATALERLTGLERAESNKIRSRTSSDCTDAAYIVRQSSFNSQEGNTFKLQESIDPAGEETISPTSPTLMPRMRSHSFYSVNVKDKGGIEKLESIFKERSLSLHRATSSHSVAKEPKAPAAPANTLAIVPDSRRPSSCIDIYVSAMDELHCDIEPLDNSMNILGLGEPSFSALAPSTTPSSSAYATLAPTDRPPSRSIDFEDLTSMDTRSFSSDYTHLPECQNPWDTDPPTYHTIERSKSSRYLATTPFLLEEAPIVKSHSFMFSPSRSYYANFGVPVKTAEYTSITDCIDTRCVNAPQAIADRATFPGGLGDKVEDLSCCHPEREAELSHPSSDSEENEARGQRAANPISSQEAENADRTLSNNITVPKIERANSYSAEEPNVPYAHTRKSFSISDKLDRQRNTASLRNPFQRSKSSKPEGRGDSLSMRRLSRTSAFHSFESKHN

Consider `Cc1nn2ccc(OCc3ccccc3Cl)cc2c1C(=O)N[C@@H](CO)C(N)=O` [Cpd 012, (2S)-2-({5-[(2-chlorophenyl)methoxy]-2-methylpyrazolo[1,5-a]pyridin-3-yl}formamido)-3-hydroxypropanamide], for which the IC50 was less than 1 µM.

The compound `Cc1nn2ccc(OCc3ccccc3Cl)cc2c1C(=O)NC(C)(CO)CO` [Cpd 014, 5-[(2-chlorophenyl)methoxy]-N-(1,3-dihydroxy-2-methylpropan-2-yl)-2-methylpyrazolo[1,5-a]pyridine-3-carboxamide] came in with an IC50 of less than 1 µM.

As to `CNC(=O)C(C)(CO)NC(=O)c1c(C)nn2ccc(OCc3ccccc3F)cc12` (single isomer, unassigned) [Cpd 011 - En1, 2-({5-[(2-fluorophenyl)methoxy]-2-methylpyrazolo[1,5-a]pyridin-3-yl}formamido)-3-hydroxy-N,2-dimethylpropanamide], the half-maximal inhibitory concentration (IC50) is less than 1 µM.

With `Cc1nn2ccc(OCc3ccccn3)cc2c1C(=O)NC1CNCC(F)(F)C1` (single isomer, unassigned) [Cpd 052 - En1, N-(5,5-difluoropiperidin-3-yl)-2-methyl-5-[(pyridin-2-yl)methoxy]pyrazolo[1,5-a]pyridine-3-carboxamide], the IC50 lay in the range of 1 to 20 µM.

Compound `Cc1nn2ccc(OCc3ccccn3)cc2c1C(=O)NCC(C)(C)CN(C)C` [Cpd 045, N-[3-(dimethylamino)-2,2-dimethylpropyl]-2-methyl-5-[(pyridin-2-yl)methoxy]pyrazolo[1,5-a]pyridine-3-carboxamide] displayed an IC50 of 1 to 20 µM.

For the compound `Cc1nn2ccc(OCc3ccccc3F)cc2c1C(=O)NC(C)(CO)CO` [Cpd 002, N-(1,3-dihydroxy-2-methylpropan-2-yl)-5-[(2-fluorophenyl)methoxy]-2-methylpyrazolo[1,5-a]pyridine-3-carboxamide], the IC50 fell in the range of 1 to 20 µM.

`Cc1nn2ccc(OCc3ccccn3)cc2c1C(=O)NC1CNCCC1(F)F` (single isomer, unassigned) [Cpd 050 - En1, N-(4,4-difluoropiperidin-3-yl)-2-methyl-5-[(pyridin-2-yl)methoxy]pyrazolo[1,5-a]pyridine-3-carboxamide] returned a half-maximal inhibitory concentration (IC50) greater than 20 µM.

With `Cc1nn2ccc(OCc3ccccc3F)cc2c1C(=O)N(C)C(C)(CO)C(N)=O` (single isomer, unassigned) [Cpd 024 - En1, 2-(1-{5-[(2-fluorophenyl)methoxy]-2-methylpyrazolo[1,5-a]pyridin-3-yl}-N-methylformamido)-3-hydroxy-2-methylpropanamide], the IC50 lay within 1 to 20 µM.

Turning to `CNC(=O)C(C)(CO)NC(=O)c1c(C)nn2ccc(OCc3ccccc3F)cc12` (single isomer, unassigned) [Cpd 011 - En2, 2-({5-[(2-fluorophenyl)methoxy]-2-methylpyrazolo[1,5-a]pyridin-3-yl}formamido)-3-hydroxy-N,2-dimethylpropanamide], the half-maximal inhibitory concentration (IC50) is 1 to 20 µM.

For the compound `Cc1nn2ccc(OCc3ccccn3)cc2c1C(=O)NCc1c(F)cccc1C(F)(F)F` [Cpd 047, N-{[2-fluoro-6-(trifluoromethyl)phenyl]methyl}-2-methyl-5-[(pyridin-2-yl)methoxy]pyrazolo[1,5-a]pyridine-3-carboxamide], the IC50 was in the range of 1 to 20 µM.

`Cc1nn2ccc(OCc3ccccn3)cc2c1C(=O)NCC(F)(F)F` [Cpd 042, 2-methyl-5-[(pyridin-2-yl)methoxy]-N-(2,2,2-trifluoroethyl)pyrazolo[1,5-a]pyridine-3-carboxamide]: the IC50 was greater than 20 µM.

Compound `Cc1nn2ccc(OCc3ccccn3)cc2c1C(=O)NCc1ncc[nH]1` [Cpd 044, N-[(1H-imidazol-2-yl)methyl]-2-methyl-5-[(pyridin-2-yl)methoxy]pyrazolo[1,5-a]pyridine-3-carboxamide] had an IC50 of 1 to 20 µM.

With `Cc1nn2ccc(OCc3ccccc3F)cc2c1C(=O)NC(C)(CO)C(N)=O` (single isomer, unassigned) [Cpd 020 - En1, 2-({5-[(2-fluorophenyl)methoxy]-2-methylpyrazolo[1,5-a]pyridin-3-yl}formamido)-3-hydroxy-2-methylpropanamide], the IC50 was less than 1 µM.

On to `Cc1nn2ccc(OCc3ccccn3)cc2c1C(=O)N[C@H](CO)CC(N)=O` [Cpd 076 - En1, (S)-4-hydroxy-3-({2-methyl-5-[(pyridin-2-yl)methoxy]pyrazolo[1,5-a]pyridin-3-yl}formamido)butanamide], for which the IC50 is greater than 20 µM.

Compound `Cc1nn2ccc(OCc3ccccc3Cl)cc2c1C(=O)NC(C)(C)C(N)=O` [Cpd 013, 2-({5-[(2-chlorophenyl)methoxy]-2-methylpyrazolo[1,5-a]pyridin-3-yl}formamido)-2-methylpropanamide] had an IC50 of 1 to 20 µM.

Compound `Cc1nn2ccc(OCc3ccccn3)cc2c1C(=O)N[C@@]1(CO)C[C@H]1C(F)F` (relative stereo) [Cpd 072 - En2, N-[cis-2-(difluoromethyl)-1-(hydroxymethyl)cyclopropyl]-2-methyl-5-[(pyridin-2-yl)methoxy]pyrazolo[1,5-a]pyridine-3-carboxamide] registered an IC50 greater than 20 µM.

In the case of `Cc1ncsc1COc1ccn2nc(C)c(C(=O)NC(C)(CO)CO)c2c1` [Cpd 008, N-(1,3-dihydroxy-2-methylpropan-2-yl)-2-methyl-5-[(4-methyl-1,3-thiazol-5-yl)methoxy]pyrazolo[1,5-a]pyridine-3-carboxamide], the IC50 is 1 to 20 µM.

For the compound `Cc1nn2ccc(OCc3ccccc3F)cc2c1C(=O)NC(C)(C)C(N)=O` [Cpd 004, 2-({5-[(2-fluorophenyl)methoxy]-2-methylpyrazolo[1,5-a]pyridin-3-yl}formamido)-2-methylpropanamide], the IC50 fell in the range of 1 to 20 µM.

In turn, `Cc1nn2ccc(OCc3ccccc3)cc2c1C(=O)O` [Cpd 033, 5-(benzyloxy)-2-methylpyrazolo[1,5-a]pyridine-3-carboxylic acid] registered an IC50 greater than 20 µM.

With `Cc1nn2ccc(OCc3ccccc3Cl)cc2c1C(=O)NC(C)(CO)C(N)=O` (single isomer, unassigned) [Cpd 019 - En1, 2-({5-[(2-chlorophenyl)methoxy]-2-methylpyrazolo[1,5-a]pyridin-3-yl}formamido)-3-hydroxy-2-methylpropanamide], the half-inhibitory concentration (IC50) was less than 1 µM.

On to `Cc1nn2ccc(OCc3ccccn3)cc2c1C(=O)NC1(CO)CC(F)(F)C1` [Cpd 055, N-[3,3-difluoro-1-(hydroxymethyl)cyclobutyl]-2-methyl-5-[(pyridin-2-yl)methoxy]pyrazolo[1,5-a]pyridine-3-carboxamide], for which the IC50 is 1 to 20 µM.

The compound `Cc1nn2ccc(OCc3ccccc3F)cc2c1C(=O)N[C@H](C(N)=O)[C@@H](C)O` [Cpd 007, (2S,3R)-2-({5-[(2-fluorophenyl)methoxy]-2-methylpyrazolo[1,5-a]pyridin-3-yl}formamido)-3-hydroxybutanamide] had an IC50 of less than 1 µM.

For the compound `Cc1nn2ccc(OCc3ccccn3)cc2c1C(=O)NC1CNCCC1(F)F` (single isomer, unassigned) [Cpd 050 - En2, N-(4,4-difluoropiperidin-3-yl)-2-methyl-5-[(pyridin-2-yl)methoxy]pyrazolo[1,5-a]pyridine-3-carboxamide], the IC50 was 1 to 20 µM.

Turning to `Cc1nn2ccc(OCc3ccccc3Cl)cc2c1C(=O)NC(C)(CO)C(N)=O` (single isomer, unassigned) [Cpd 019 - En2, 2-({5-[(2-chlorophenyl)methoxy]-2-methylpyrazolo[1,5-a]pyridin-3-yl}formamido)-3-hydroxy-2-methylpropanamide], the IC50 was in the range of 1 to 20 µM.

`Cc1nn2ccc(OCc3ccccn3)cc2c1C(=O)NC1(CO)CC1(F)F` (stereo not shown) [Cpd 071, N-[2,2-difluoro-1-(hydroxymethyl)cyclopropyl]-2-methyl-5-[(pyridin-2-yl)methoxy]pyrazolo[1,5-a]pyridine-3-carboxamide] showed an IC50 greater than 20 µM.

Values taken from patent US20250376468A1, “PYRAZOLO[1,5-a]PYRIDINE DERIVATIVES FOR TREATING TRPM3-MEDIATED DISORDERS” (Katholieke Universiteit Leuven, priority 2022, published 2025).
